The record followed here is patent US10183936B2, “Hepatitis B core protein allosteric modulators” (priority 2014, dated 2019).

Data set [1] deals with AD38 cells. Kind of data set: Viability of AD38 cells (Promega CellTiter-Glo) at the end of compound treatment. It counts as cell-based. The settings on record: 10 μM compound, 6 days, luminescence normalized against DMSO control wells (controls being 100%). In a few lines:
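Luminescent CellTiter-Glo read-out, taken after supernatant was swapped for tetracycline-free 2% FBS medium with 1% DMSO, gave percent viability relative to DMSO controls set at 100%. Cells were plated at 50,000/well and exposed to compound, added as a 10× stock in 10% DMSO, for 6 days at 37° C.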

Data set [2] relates to HBV viral production in AD38 cells. In words: Viral load production in AD38 cells by quantitative PCR of the HBV core sequence in supernatant. It counts as cell-based. The note with it: 10 μM compound, 6 days at 37° C., viral load in supernatant compared against DMSO control wells; for activity at 10 µM: Hepatitis B virus, 144 h, read-out: AD38 Viral Load (CpAM/DMSO %) at 10 μM. Put shortly: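 Read-out is TaqMan qPCR of the HBV core region in supernatant, quantitated against standards and referenced to DMSO controls (≥3 per plate). Cells: AD38 at 50,000/well, exposed to compound (added as 10× stock in 10% DMSO) for 6 days at 37° C.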

SMILES strings stand for the structures.

Turning to `CC(C)NS(=O)(=O)c1ccc2c(c1)NC(=O)c1ccccc1S2` [Compound 1450], the “AD38 Viability Normalized Result (CPAM/DMSO %) at 10 μM” value in data set [1] is 94%. Further, the activity at 10 µM in data set [2] was 73%.
The corresponding values for `O=C(NCCCCc1ccccc1)c1ccc2c(c1)NC(=O)c1ccccc1S2` [Compound 1109] are 99% and 6%.
On the same counts, the results for `Cc1c(C(=O)NCCc2ccccn2)ccc2c1NC(=O)c1ccccc1S2` [Compound 1459] are 92% and 4%.
On the same counts, the results for `CCC(CNC(=O)c1ccc2c(c1)NC(=O)c1ccccc1S2)c1ccccc1` (stereo not shown) [Compound 1176] are 104% and 2%.
With `CC(=O)N(CCc1ccccc1)Cc1ccc2c(c1)NC(=O)c1ccccc1S2` [Compound 1367, N-((11-oxo-10, 11-dihydrodibenzo [b,f] [1,4]thiazepin-8-yl)methyl)-N-phenethyl acetamide], the “AD38 Viability Normalized Result (CPAM/DMSO %) at 10 μM” value in data set [1] was determined as 88%. For the same compound, the activity at 10 µM in data set [2] came to 33%.
As for `O=C(NCc1scnc1-c1ccccc1)c1ccc2c(c1)NC(=O)c1ccccc1S2` [Compound 1605], the “AD38 Viability Normalized Result (CPAM/DMSO %) at 10 μM” value in data set [1] is 106%. In addition, the activity at 10 µM in data set [2] turned out to be 25%.
Consider `COC(=O)c1ccc(CCNC(=O)c2ccc3c(c2)NC(=O)c2ccccc2S3)cc1` [Compound 1117], for which the “AD38 Viability Normalized Result (CPAM/DMSO %) at 10 μM” value in data set [1] was found to be 108%. Further, the activity at 10 µM in data set [2] worked out at 67%.
In the case of `O=C(Nc1cccc(-c2ccccc2)c1)c1ccc2c(c1)NC(=O)c1ccccc1S2(=O)=O` [Compound 1458], the “AD38 Viability Normalized Result (CPAM/DMSO %) at 10 μM” value in data set [1] is on record as 49%. For the same compound, the activity at 10 µM in data set [2] was found to be 12%.
The corresponding values for `CC(=O)N1CCC(CNC(=O)c2ccc3c(c2)NC(=O)c2ccccc2S3)C1` (stereo not shown) [Compound 1615, N-((1-acetylpyrrolidin-3-yl)methyl)-11-oxo-10, 11-dihydrodibenzo [b,f] [1,4] thiazepine-8-carboxamide] are 123% and 32%.
The corresponding values for `O=C(NCCc1cnco1)c1ccc2c(c1)NC(=O)c1ccccc1[S+]2[O-]` (stereo not shown) [Compound 1485] are 96% and 30%.
On the same counts, the results for `CN(C)S(=O)(=O)c1ccc(CCNC(=O)c2ccc3c(c2)NC(=O)c2cccc(F)c2S3)cc1` [Compound 1488] are 97% and 84%.
Take `CNc1ccccc1CNC(=O)c1ccc2c(c1)NC(=O)c1ccccc1S2` [Compound 1239, N-(2-(methylamino)benzyl)-11-oxo-10, 11-dihydrodibenzo [b,f] [1,4] thiazepine-8-carboxamide]: the “AD38 Viability Normalized Result (CPAM/DMSO %) at 10 μM” value in data set [1] worked out at 106%. In addition, in data set [2], the activity at 10 µM turned out to be 33%.
Turning to `O=C(NCCc1ccc(-c2ccccc2)cc1)c1cc2c(cc1F)Sc1ccccc1C(=O)N2` [Compound 1491], the “AD38 Viability Normalized Result (CPAM/DMSO %) at 10 μM” value in data set [1] worked out at 80%. Further, in data set [2], the activity at 10 µM amounted to 39%.
The corresponding values for `O=C1Nc2c(cc(F)c(C(=O)NCc3cnco3)c2F)Sc2ccccc21` [Compound 1530] are 93% and 70%.
On to `O=C(NCCc1cnco1)c1ccc2c(c1)NC(=O)c1ccccc1S2(=O)=O` [Compound 1616], for which, in data set [1], the “AD38 Viability Normalized Result (CPAM/DMSO %) at 10 μM” value amounted to 115%. Moreover, the activity at 10 µM in data set [2] was 5%.
The corresponding values for `O=C(NCc1cccnc1)c1ccc2c(c1)NC(=O)c1ccccc1[S+]2[O-]` (stereo not shown) [Compound 1427] are 85% and 7%.
Regarding `O=C(NCCCOc1ccccc1)c1ccc2c(c1)NC(=O)c1ccccc1S2` [Compound 1241], the “AD38 Viability Normalized Result (CPAM/DMSO %) at 10 μM” value in data set [1] is given as 86%. Besides, the activity at 10 µM in data set [2] was determined as 12%.
On the same counts, the results for `CN(C)S(=O)(=O)c1ccc(CCCNC(=O)c2ccc3c(c2)NC(=O)c2ccc(F)cc2S3)cc1` [Compound 1398] are 60% and 5%.
As to `O=C(NCCC1CCCCC1)Nc1ccc2c(c1)NC(=O)c1ccccc1S2` [Compound 1225, 1-(2-cyclohexylethyl)-3-(11-oxo-10, 11-dihydrodibenzo [b,f] [1,4]thiazepin-8-yl) urea], in data set [1], the “AD38 Viability Normalized Result (CPAM/DMSO %) at 10 μM” value came to 87%. For the same compound, the activity at 10 µM in data set [2] turned out to be 10%.
On the same counts, the results for `O=C1Nc2cc(S(=O)(=O)N3CCCCC3)ccc2Sc2ccccc21` [Compound 1399] are 92% and 105%.
On the same counts, the results for `COCC(Cc1cncnc1)NC(=O)c1ccc2c(c1)NC(=O)c1cc(F)ccc1S2` (stereo not shown) [Compound 1397] are 95% and 73%.
As for `O=C(NCc1cncs1)c1ccc2c(c1)NC(=O)c1ccccc1O2` [Compound 1593], the “AD38 Viability Normalized Result (CPAM/DMSO %) at 10 μM” value in data set [1] stood at 133%. In addition, the activity at 10 µM in data set [2] came to 3%.
On the same counts, the results for `O=C(NC[C@H](O)c1ccccc1)c1ccc2c(c1)NC(=O)c1ccccc1S2` [Compound 1220] are 94% and 2%.
On the same counts, the results for `CN1c2ccc(C(=O)NCc3cccnc3)cc2NC(=O)c2ccccc21` [Compound 1499] are 84% and 2%.
The corresponding values for `O=C(NCc1cncnc1)c1ccc2c(c1)NC(=O)c1ccccc1[S+]2[O-]` (stereo not shown) [Compound 1373] are 100% and 10%.
As for `O=C(NCc1cccnc1)c1ccc2c(c1)NC(=O)c1ccccc1S2(=O)=O` [Compound 1449], in data set [1], the “AD38 Viability Normalized Result (CPAM/DMSO %) at 10 μM” value is 86%. In addition, the activity at 10 µM in data set [2] is 2%.
Consider `O=C(NCCC1CCOCC1)c1ccc2c(c1)NC(=O)c1ccccc1S2` [Compound 1191], for which the “AD38 Viability Normalized Result (CPAM/DMSO %) at 10 μM” value in data set [1] was determined as 121%. Also, the activity at 10 µM in data set [2] was 14%.
On the same counts, the results for `O=C(NCc1ccc(F)cc1)c1ccc2c(c1)NC(=O)c1ccccc1S2(=O)=O` [Compound 1623] are 128% and 1%.
On the same counts, the results for `O=C1Nc2c(cc(F)c(C(=O)NCCc3ccccn3)c2F)Sc2ccccc21` [Compound 1519] are 81% and 73%.
On the same counts, the results for `CN(C)S(=O)(=O)c1ccc(CCNC(=O)c2ccc3c(c2)NC(=O)c2ccccc2S3)cc1` [Compound 1102] are 100% and 1%.
Consider `O=C(NCc1cncs1)c1ccc2c(c1)NC(=O)c1ccccc1[SH]2O` (stereo not shown) [Compound 1535], for which the “AD38 Viability Normalized Result (CPAM/DMSO %) at 10 μM” value in data set [1] is on record as 85%. In data set [2], the “AD38 Viral Load (CpAM/DMSO %) at 10 μM” value is listed as 108%.
`O=C(NCc1cncs1)c1ccc2c(c1)NC(=O)c1cccc(F)c1S2` [Compound 1407]: the “AD38 Viability Normalized Result (CPAM/DMSO %) at 10 μM” value in data set [1] is recorded as 103%. Further, the activity at 10 µM in data set [2] worked out at 3%.
On the same counts, the results for `O=C(NCCCc1ccccc1)c1ccc2c(c1)NC(=O)c1ccccc1S2` [Compound 1108] are 105% and 1%.
The corresponding values for `O=C(NCc1cnco1)c1ccc2c(c1)NC(=O)c1ccccc1S2(=O)=O` [Compound 1456] are 101% and 15%.
With `O=C(NCCc1ccccn1)c1ccc2c(c1)NC(=O)c1ccccc1S2(=O)=O` [Compound 1447], in data set [1], the “AD38 Viability Normalized Result (CPAM/DMSO %) at 10 μM” value came out at 85%. Further, the activity at 10 µM in data set [2] is 1%.
With `O=C(Nc1cccc(-c2ccccc2)c1)c1ccc2c(c1)NC(=O)c1ccccc1S2` [Compound 1445], the “AD38 Viability Normalized Result (CPAM/DMSO %) at 10 μM” value in data set [1] was found to be 38%. In data set [2], the activity at 10 µM was 24%.
The corresponding values for `O=C(Nc1cccc(-c2cccc(O)c2)c1)c1ccc2c(c1)NC(=O)c1cc(F)ccc1S2` [Compound 1468] are 97% and 76%.
As for `O=C(NCc1cnco1)c1ccc2c(c1)NC(=O)c1cccc(F)c1S2` [Compound 1408], the “AD38 Viability Normalized Result (CPAM/DMSO %) at 10 μM” value in data set [1] is on record as 94%. In addition, in data set [2], the activity at 10 µM was found to be 17%.
Regarding `Cc1cccc(CNC(=O)c2ccc3c(c2)NC(=O)c2ccccc2S3)c1` [Compound 1163], in data set [1], the “AD38 Viability Normalized Result (CPAM/DMSO %) at 10 μM” value is listed as 104%. In addition, the activity at 10 µM in data set [2] worked out at 3%.
With `O=C(NCc1ccc(-c2cncnc2)cc1)c1ccc2c(c1)NC(=O)c1ccccc1S2(=O)=O` [Compound 1627], the “AD38 Viability Normalized Result (CPAM/DMSO %) at 10 μM” value in data set [1] is 115%. Moreover, the activity at 10 µM in data set [2] is 5%.
`O=C(NCC1CCOCC1)c1ccc2c(c1)NC(=O)c1ccccc1S2` [Compound 1607]: the “AD38 Viability Normalized Result (CPAM/DMSO %) at 10 μM” value in data set [1] turned out to be 93%. Further, the activity at 10 µM in data set [2] stood at 14%.
On the same counts, the results for `O=C1Nc2c(cc(F)c(C(=O)NCCc3ccc(-c4ccccc4)cc3)c2F)Sc2ccccc21` [Compound 1497] are 49% and 9%.
`O=C(Nc1ccc(Cl)cc1)c1ccc2c(c1)NC(=O)c1cc(F)ccc1S2` [Compound 1321]: the “AD38 Viability Normalized Result (CPAM/DMSO %) at 10 μM” value in data set [1] came out at 74%. Besides, the activity at 10 µM in data set [2] worked out at 15%.
The corresponding values for `O=C(Nc1ccccc1)c1ccc2c(c1)NC(=O)c1ccccc1S2` [Compound 1223] are 28% and 2%.
